In ChEMBL document CHEMBL4840348, “Total Syntheses and Anti-inflammatory Activities of Syringin and Its Natural Analogues” (J Nat Prod, 2021):

What was measured:
[1] = test system: RAW264.7; assay: Antiinflammatory activity in mouse RAW264.7 cells assessed as inhibition of LPS-induced NO production pretreated with compound for 2 hrs followed by LPS stimulation measured after 18 hrs by gGriess reagent based assay; assay type: functional, cell-based
[2] = test system: RAW264.7; assay: Cytotoxicity against mouse RAW264.7 cells assessed as reduction in cell viability at 100 uM measured after 24 hrs by MTT assay; assay type: cell-based; conditions: raw264.7, 24 h

SMILES: COC/C=C/c1cc(OC)c(O[C@@H]2O[C@H](CO)[C@@H](O)[C@H](O)[C@H]2O)c(OC)c1
- IC50 [1]: 14.6 µM
- Activity [2]: Non-Toxic

SMILES: CCOC/C=C/c1cc(OC)c(O[C@@H]2O[C@H](CO)[C@@H](O)[C@H](O)[C@H]2O)c(OC)c1
- IC50 [1]: > 100 µM
- Activity [2]: Non-Toxic

SMILES: COC(=O)/C=C/c1cc(OC)c(O[C@@H]2O[C@H](CO)[C@@H](O)[C@H](O)[C@H]2O)c(OC)c1
- IC50 [1]: 20.4 µM
- Activity [2]: Non-Toxic

SMILES: COc1cc(/C=C/CO)cc(OC)c1O[C@@H]1O[C@H](CO)[C@@H](O)[C@H](O)[C@H]1O [SYRINGIN]
- IC50 [1]: 17.2 µM
- Activity [2]: Non-Toxic

SMILES: COc1cc(/C=C/C(=O)O)cc(OC)c1O[C@@H]1O[C@H](CO)[C@@H](O)[C@H](O)[C@H]1O
- IC50 [1]: 18.7 µM
- Activity [2]: Non-Toxic

SMILES: COc1cc([C@H](O)[C@H](O)CO)cc(OC)c1O[C@@H]1O[C@H](CO)[C@@H](O)[C@H](O)[C@H]1O
- IC50 [1]: 25.1 µM
- Activity [2]: Non-Toxic

SMILES: COc1cc(CCCO)cc(OC)c1O[C@@H]1O[C@H](CO)[C@@H](O)[C@H](O)[C@H]1O [DIHYDROSYRINGIN]
- IC50 [1]: > 100 µM
- Activity [2]: Non-Toxic

SMILES: COc1cc(/C=C/CO[C@@H]2O[C@H](CO)[C@@H](O)[C@H](O)[C@H]2O)cc(OC)c1O[C@@H]1O[C@H](CO)[C@@H](O)[C@H](O)[C@H]1O
- IC50 [1]: 16.6 µM
- Activity [2]: Non-Toxic

SMILES: COc1cc(/C=C/C=O)cc(OC)c1O[C@@H]1O[C@H](CO)[C@@H](O)[C@H](O)[C@H]1O [SINAPALDEHYDE GLUCOSIDE]
- IC50 [1]: > 100 µM
- Activity [2]: Non-Toxic

SMILES: CCCCOC/C=C/c1cc(OC)c(O[C@@H]2O[C@H](CO)[C@@H](O)[C@H](O)[C@H]2O)c(OC)c1
- IC50 [1]: > 100 µM
- Activity [2]: Non-Toxic

SMILES: Cc1ccc(-c2cc(C(F)(F)F)nn2-c2ccc(S(N)(=O)=O)cc2)cc1 [CELECOXIB]
- IC50 [1]: 2.3 µM

SMILES: COc1cc([C@@H](O)[C@@H](O)CO)cc(OC)c1O[C@@H]1O[C@H](CO)[C@@H](O)[C@H](O)[C@H]1O
- IC50 [1]: 15.4 µM
- Activity [2]: Non-Toxic

SMILES: COc1cc(/C=C/COC/C=C/c2cc(OC)c(O[C@@H]3O[C@H](CO)[C@@H](O)[C@H](O)[C@H]3O)c(OC)c2)cc(OC)c1O[C@@H]1O[C@H](CO)[C@@H](O)[C@H](O)[C@H]1O
- IC50 [1]: > 100 µM
- Activity [2]: Non-Toxic
